Ten molecules from US6586441B2, “Adenosine receptor ligands and their use in the treatment of disease” (Hoffman-La Roche Inc., priority 2000, dated 2003) can be followed below.

For test [1], the target named is T1, human adenosine A2A receptor (Homo sapiens, UniProt P29274).
T1 construct: expressed in transfected cells; host or cells: CHO cells, semliki forest virus expression system; membrane preparation
Put plainly: Human adenosine A2A receptor [3H]-SCH-58261 binding assay. In a few lines: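 Membranes from CHO cells expressing the human receptor (Semliki Forest virus system) were incubated with 1 nM [3H]-SCH-58261 and adenosine deaminase. The buffer was Tris pH 7.4 with NaCl, KCl, CaCl2 and MgCl2, and the read-out was SPA after 1 h at room temperature. Non-specific binding was defined with XAC; compounds were run at 10 concentrations (10 μM–0.3 nM), and IC50 values were converted to Ki by Cheng-Prusoff.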

For test [2], the target named is T2, human adenosine A3 receptor (Homo sapiens, UniProt P0DMS8).
T2 construct: expressed in transfected cells; host or cells: CHO cells, semliki forest virus expression system; membrane preparation
T2 sequence (P0DMS8 1-318): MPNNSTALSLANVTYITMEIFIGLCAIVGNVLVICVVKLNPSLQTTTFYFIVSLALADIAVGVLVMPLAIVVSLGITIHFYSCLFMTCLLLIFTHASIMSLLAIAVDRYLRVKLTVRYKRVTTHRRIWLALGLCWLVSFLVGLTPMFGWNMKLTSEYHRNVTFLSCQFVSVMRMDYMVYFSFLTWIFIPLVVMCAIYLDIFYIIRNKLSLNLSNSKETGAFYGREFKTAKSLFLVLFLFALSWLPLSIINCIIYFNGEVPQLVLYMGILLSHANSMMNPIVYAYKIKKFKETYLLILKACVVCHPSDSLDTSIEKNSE
Put plainly: Human adenosine A3 receptor [125I]-AB-MECA binding assay. The conditions noted are these: membranes of CHO cells, read-out: hA3 (pKi) (converted). Here is the method: The gene encoding human adenosine A3 receptor was recombinantly introduced and expressed in chinese hamster ovary (CHO) cells using the semliki forest virus expression system. Cells were harvested, washed twice by centrifugation, homogenised and again washed by centrifugation. The final washed membrane pellet was suspended in a Tris (50 mM) buffer containing 120 mM NaCl, 5 mM KCl, 2 mM CaCl2 and 10 mM MgCl2 (pH 7.4) (buffer A). The [^125I]-AB-MECA ([N(6)-(4-amino-3-iodobenzyl)-5′-N-methylcarbamoyl-adenosine]; 0.05 nM) binding assay was carried out in 96-well plates in the presence of 20 μg of membrane protein and 0.1 U adenosine deaminase in a final volume of 200 μl of buffer A. Non-specific binding was defined using xanthine amine congener (XAC; 2 μM). Compounds were tested at 10 concentrations from 10 μM-0.3 nM. All assays were conducted in duplicate and repeated at least two times. Assay plates were incubated for 1 hour at room temperature before filtration through Whatman Unifilter GF/C 96-well filter plates (preincubated with 0.3% polyethyleneimine). Filters were washed 3 times with 0.3 ml of cold (4° C.) Tris (50 mM)-Nacl (120 mM) buffer (pH 7.4). Microscint 40 scintillation fluid (50 μl) was added to each well and the wells sealed. After gentle shaking for 20 min, plates were counted on a Packard Topcount scintillation counter. IC50 values were calculated using a non-linear curve fitting program and Ki values calculated using the Cheng-Prussoff equation.

Test [3] concerns the target T3, human adenosine A1 receptor (Homo sapiens, UniProt P30542).
T3 construct: expressed in transfected cells; host or cells: CHO cells, semliki forest virus expression system; membrane preparation
T3 sequence (P30542 1-326): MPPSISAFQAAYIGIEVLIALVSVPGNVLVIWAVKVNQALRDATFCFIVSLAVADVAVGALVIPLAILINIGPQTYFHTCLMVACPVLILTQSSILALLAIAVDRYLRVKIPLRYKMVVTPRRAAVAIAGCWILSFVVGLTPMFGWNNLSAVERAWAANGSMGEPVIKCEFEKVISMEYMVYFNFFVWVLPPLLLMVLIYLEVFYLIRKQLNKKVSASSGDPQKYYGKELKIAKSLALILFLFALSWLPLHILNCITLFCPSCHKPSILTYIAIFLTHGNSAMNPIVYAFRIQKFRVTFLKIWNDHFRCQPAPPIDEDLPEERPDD
The test can be described thus: Human adenosine A1 receptor [3H]-DPCPX binding assay. The conditions noted are these: membranes of CHO cells, read-out: hA1 (pKi) (converted). Here is the method: The gene encoding human adenosine A1 receptor was recombinantly introduced and expressed in chinese hamster ovary (CHO) cells using the semliki forest virus expression system. Cells were harvested, washed twice by centrifugation, homogenised and again washed by centrifugation. The final washed membrane pellet was suspended in a Tris (50 mM) buffer containing 120 mM NaCl, 5 mM KCl, 2 mM CaCl2 and 10 mM MgCl2 (pH 7.4) (buffer A). The [^3H]-DPCPX (([propyl-3H]8-cyclopentyl-1,3-dipropyxanthine); 0.6 nM) binding assay was carried out in 96-well plates in the presence of 2.5 μg of membrane protein, 0.5 mg of Ysi-poly-1-lysine SPA beads and 0. I U adenosine deaminase in a final volume of 200 μl of buffer A. Non-specific binding was defined using xanthine amine congener (XAC; 2 μM). Compounds were tested at 10 concentrations from 10 μM-0.3 nM. All assays were conducted in duplicate and repeated at least two times. Assay plates were incubated for 1 hour at room temperature before centrifugation and then bound ligand determined using a Packard Topcount scintillation counter. IC50 values were calculated using a non-linear curve fitting program and Ki values calculated using the Cheng-Prussoff equation.

[4] abbreviates: human A2A receptor, selectivity table.
The mark [5] stands for this setting: human A2a receptor, membranes of CHO cells, [3H]-SCH-58261, read-out: pKi (affinity to the human A2a receptor) (converted).
The mark [6] stands for this setting: human A2A receptor, selectivity table, read-out: hA2 (pKi) (converted).

Read-outs that look alike come from different tables or passages of the source.

T1 sequence (P29274 whole entry): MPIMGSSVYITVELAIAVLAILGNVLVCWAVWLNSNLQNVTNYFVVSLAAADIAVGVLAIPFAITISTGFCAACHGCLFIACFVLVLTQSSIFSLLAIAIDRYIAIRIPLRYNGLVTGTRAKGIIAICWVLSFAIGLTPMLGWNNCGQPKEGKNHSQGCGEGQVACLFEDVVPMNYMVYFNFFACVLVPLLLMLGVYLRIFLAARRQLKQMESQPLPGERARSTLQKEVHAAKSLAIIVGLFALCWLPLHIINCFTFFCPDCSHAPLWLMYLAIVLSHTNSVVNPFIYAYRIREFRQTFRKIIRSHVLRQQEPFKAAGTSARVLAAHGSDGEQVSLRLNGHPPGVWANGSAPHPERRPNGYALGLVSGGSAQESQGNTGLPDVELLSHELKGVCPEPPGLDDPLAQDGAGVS

Take `N#Cc1c(/C=C/c2ccccc2)nc(N)nc1-c1ccco1` [Example 149, (E)-2-Amino-4-furan-2-yl-6-styryl-pyrimidine-5-carbonitrile]: the “hA2 (pKi)” value in test [1] (setting [4]) was 8.34. In addition, the Ki was 4.57 nM in test [1] (setting [5]), 2040 nM in test [2] and 389 nM in test [3].
The like results for `N#Cc1c(NCCNc2ccccc2)nc(N)nc1-c1ccco1` [Example 132, 2-Amino-4-furan-2-yl-6-(2-phenylamino-ethylamino)-pyrimidine-5-carbonitrile] were, in that order, 8.33, 4.68 nM, 6030 nM and 692 nM.
`Cc1ccccc1CNc1nc(N)nc(-c2ccco2)c1C#N` [Example 288, 2-Amino-4-furan-2-yl-6-(2-methyl-benzylamino)-pyrimidine-5-carbonitrile]: in test [1] (setting [4]), the “hA2 (pKi)” value is listed as 8.59. Besides, the Ki in test [1] (setting [5]) is 2.57 nM; in test [2] it was 151 nM; in test [3], 372 nM.
Turning to `N#Cc1c(OCc2ccc3ccccc3c2)nc(N)nc1-c1ccco1` [Example 303, 2-Amino-4-furan-2-yl-6-(naphthalen-2-ylmethoxy)-pyrimidine-5-carbonitrile], the “hA2 (pKi)” value in test [1] (setting [4]) was found to be 8.60. The Ki in test [1] (setting [5]) was 2.51 nM; in test [2], 8710 nM; in test [3] it was 316 nM.
As for `COc1cc(-c2nc(N)nc(SC)c2C#N)cc(OC)c1OC` [Example 15, 2-Amino-4-methylsulfanyl-6-(3,4,5-trimethoxy-phenyl)-pyrimidine-5-carbonitrile], the Ki in test [1] (setting [6]) is 57.5 nM; in test [2], 1950 nM; in test [3] it was 1320 nM.
`N#Cc1c(NCCNc2ccc(Cl)cc2)nc(N)nc1-c1ccco1` [Example 318, 2-Amino-4-[2-(4-chloro-phenylamino)-ethylamino]-6-furan-2-yl-pyrimidine-5-carbonitrile]: in test [1] (setting [4]), the “hA2 (pKi)” value came to 8.27. The Ki is 5.37 nM in test [1] (setting [5]), 7240 nM in test [2] and 851 nM in test [3].
Taken in the same sequence, the figures for `CCc1ccc(CNc2nc(N)nc(-c3ccco3)c2C#N)cc1` [Example 375, 2-Amino-4-(4-ethyl-benzylamino)-6-furan-2-yl-pyrimidine-5-carbonitrile] were 8.40, 3.98 nM, 2140 nM and 646 nM.
For the molecule `N#Cc1c(NCc2ccccc2)nc(N)nc1-c1ccco1` [Example 42, 2-Amino-4-benzylamino-6-furan-2-yl-pyrimidine-5-carbonitrile], the “hA2 (pKi)” value in test [1] (setting [4]) turned out to be 8.33. Moreover, the Ki in test [1] (setting [5]) was 4.68 nM; in test [2] it was 8910 nM; in test [3], 1660 nM.
As for `N#Cc1cnc(N)nc1-c1cccs1` [Example 26, 2-Amino-4-thiophen-2-yl-2-pyrimidine-5-carbonitrile], the Ki in test [1] (setting [6]) was 36.3 nM; in test [2], 1260 nM; in test [3] it was 2510 nM.
Consider `N#Cc1c(NCc2ccc(Br)cc2)nc(N)nc1-c1ccco1` [Example 325, 2-Amino-4-(4-bromo-benzylamino)-6-furan-2-yl-pyrimidine-5-carbonitrile], for which the “hA2 (pKi)” value in test [1] (setting [4]) is listed as 8.26. Also, the results for the Ki in test [1] (setting [5]), in test [2] and in test [3] were 5.5 nM, 3980 nM and 2880 nM, respectively.
